*1 amine or outer side, *2 acyl side, *3 side chain or, on linkers, in order; H or OH if unused. Where a SMILES comes first, the peptide text is derived from it. Bridges are numbered along the chain shown (N, C = ends). [ ]: non-standard residue; d: D form. Cys(O)(CH2CO) = O=C([C@H](C[S+]([O-])CC(=O)[*:3])N[*:1])[*:2]; Aad = N[C@@H](CCCC(=O)O)C(=O)O; Pen = CC(C)(S)[C@H](N)C(=O)O; dOrn = NCCC[C@@H](N)C(=O)O
Each molecule was assayed on New Zealand White rabbits (assay: Rabbit peripheral blood flow (PBF) by observation of ear vessels). Conditions: rabbit, i.v. bolus 0.5 mg/kg + 0.012 mg/kg infused over 60 minutes; measured visually.
Type: in vivo
Design: key to PBF: NORMAL: Normal flow is defined as ears that appear pink to red, with no visible constriction of the major blood vessels; Decreased flow applies to ears that have constricted vessels resulting in cold, pallid ears for up to 40 minutes following the start of the inhibitor infusion
Description: Catheters are flushed and locked after every sample.
For the experiments summarized in Table 1, PBF was monitored by observation of the condition of the blood vessels in the rabbits' ears, prior to and during the infusion. Normal flow is defined as ears that appear pink to red, with no visible constriction of the major blood vessels. Decreased flow applies to ears that have constricted vessels resulting in cold, pallid ears for up to 40 minutes following the start of the inhibitor infusion.

Row | Molecule | PBF
1 | N=C(N)NCCC[C@H](NC(=O)[C@@H]1C[S+]([O-])CC(=O)N[C@H](Cc2ccc(O)cc2)C(=O)N[C@@H](CCCNC(=N)N)C(=O)NCC(=O)N[C@@H](CC(=O)O)C(=O)N1)C(N)=O (single isomer, unassigned) [drawing 33] | NORMAL

Same assay, conditions: rabbit, i.v. bolus 1.5 mg/kg + 0.036 mg/kg infused over 60 minutes; measured visually

Row | Molecule | PBF
2 | N=C(N)NCCC[C@@H]1NC(=O)[C@@H](Cc2ccc(O)cc2)NC(=O)[C@@H](CCCNC(=N)N)SC[C@@H](C(=O)O)NC(=O)[C@H](CC(=O)O)NC(=O)CNC1=O | NORMAL
3 | N=C(N)NCCC[C@@H]1NC(=O)[C@@H](Cc2ccc(O)cc2)NC(=O)[C@H](CCCNC(=N)N)SC[C@@H](C(=O)O)NC(=O)[C@H](CC(=O)O)NC(=O)CNC1=O | NORMAL
4 | N=C(N)NCCC[C@@H]1NC(=O)[C@@H](Cc2ccc(O)cc2)NC(=O)C[S+]([O-])C[C@@H](C(=O)N[C@@H](CCCN)C(N)=O)NC(=O)[C@H](CC(=O)O)NC(=O)CNC1=O (stereo partly drawn) | NORMAL
5 | NCCCC[C@@H]1NC(=O)[C@@H](Cc2ccc(O)cc2)NC(=O)C(c2ccccc2)SC[C@@H](C(=O)O)NC(=O)[C@H](CC(=O)O)NC(=O)CNC1=O (single isomer, unassigned) [drawing 13] | NORMAL
6 | N=C(N)NCCC[C@@H]1NC(=O)[C@@H](Cc2ccc(O)cc2)NC(=O)C(CCCCN)SC[C@@H](C(=O)O)NC(=O)[C@H](CC(=O)O)NC(=O)CNC1=O (single isomer, unassigned) [drawing 22] | NORMAL
7 | N=C(N)NCCC[C@@H]1NC(=O)[C@@H](Cc2ccc(O)cc2)NC(=O)C(CCCCN)SC[C@@H](C(=O)O)NC(=O)[C@H](CC(=O)O)NC(=O)CNC1=O (single isomer, unassigned) [drawing 23] | NORMAL
8 | N=C(N)NCCC[C@H](NC(=O)[C@@H]1C[S+]([O-])CC(=O)N[C@H](Cc2ccc(O)cc2)C(=O)N[C@@H](CCCNC(=N)N)C(=O)NCC(=O)N[C@@H](CC(=O)O)C(=O)N1)C(N)=O (single isomer, unassigned) [drawing 34] | NORMAL
9 | CC1(C)SCC(=O)N[C@H](Cc2ccc(O)cc2)C(=O)N[C@@H](CCCCN)C(=O)NCC(=O)N[C@@H](CC(=O)O)C(=O)N[C@@H]1C(=O)O [drawing 9] ({CH2CO}-[dY]KGD[Pen]-OH; thioether N-5) | NORMAL
10 | N=C(N)NCCC[C@H](NC(=O)[C@@H]1CSCC(=O)N[C@H](Cc2ccc(O)cc2)C(=O)N[C@@H](CCCNC(=N)N)C(=O)NCC(=O)N[C@@H](CC(=O)O)C(=O)N1)C(N)=O [drawing 15] ({CH2CO}-[dY]RGDCR-NH2; thioether N-5) | NORMAL
11 | N=C(N)NCCC[C@@H]1NC(=O)[C@@H](Cc2ccc(O)cc2)NC(=O)CSC[C@@H](C(=O)N[C@H](CCCN)C(N)=O)NC(=O)[C@H](CC(=O)O)NC(=O)CNC1=O [drawing 18] ({CH2CO}-[dY]RGDC[dOrn]-NH2; thioether N-5) | NORMAL
12 | CC1(C)SCC(=O)N[C@H](Cc2ccc(O)cc2)C(=O)N[C@@H](CCCCN)C(=O)NCC(=O)N[C@@H](CC(=O)O)C(=O)N[C@@H]1C(=O)N[C@@H](CCCNC(=N)N)C(N)=O [drawing 26] ({CH2CO}-[dY]KGD[Pen]R-NH2; thioether N-5) | NORMAL
13 | N=C(N)NCCC[C@H](NC(=O)[C@@H]1CCCC(=O)N[C@H](Cc2ccc(O)cc2)C(=O)N[C@@H](CCCNC(=N)N)C(=O)NCC(=O)N[C@@H](CC(=O)O)C(=O)N1)C(N)=O [drawing 28] ([dY]RGD[Aad]R-NH2; lactam N-5) | NORMAL
14 | N=C(N)NCCC[C@@H]1NC(=O)[C@@H](Cc2ccc(O)cc2)NC(=O)CCC[C@@H](C(=O)N[C@@H](CCCCN)C(N)=O)NC(=O)[C@H](CC(=O)O)NC(=O)CNC1=O [drawing 29] ([dY]RGD[Aad]K-NH2; lactam N-5) | NORMAL
15 | N=C(N)NCCC[C@@H]1NC(=O)[C@@H](Cc2ccc(O)cc2)NC(=O)CSC[C@@H](C(=O)N[C@@H](CCCCN)C(=O)O)NC(=O)[C@H](CC(=O)O)NC(=O)CNC1=O [drawing 32] ({CH2CO}-[dY]RGDCK-OH; thioether N-5) | NORMAL

Same assay, conditions: rabbit, i.v. bolus .375 mg/kg + 0.009 mg/kg infused over 60 minutes; measured visually

Row | Molecule | PBF
16 | N=C(N)NCCC[C@@H]1NC(=O)[C@@H](Cc2ccc(O)cc2)NC(=O)C[S+]([O-])C[C@@H](C(=O)O)NC(=O)[C@H](CC(=O)O)NC(=O)CNC1=O (stereo partly drawn) ([dY]RGD[Cys(O)(CH2CO)]-OH; lactam N-5) | NORMAL

What follows are molecules tested against human platelet rich plasma (PRP) (Homo sapiens, UniProt P05106+P08514) (assay: In Vitro Human Platelet Aggregation Assay). Conditions: human PRP; read-out: Human Platelet Aggregation IC50.
Type: cell-based
Description: Platelet aggregation assays are performed in human platelet rich plasma (PRP). Fifty milliliters of whole human blood (9 parts) is drawn on 3.6% sodium citrate (1 part) from a donor who has not taken aspirin or related medications for at least two weeks. The blood is centrifuged at 160×g for 10 minutes at 22° C. and allowed to stand for 5 minutes after which the PRP is decanted. Platelet poor plasma (PPP) is isolated from the remaining blood after centrifugation at 2000×g for 25 minutes. The platelet count of the PRP is diluted to about 300,000 platelets per microliter with PPP.
A 225 μl aliquot of PRP plus 25 μl of either a dilution of the test inhibitor sample or a control (PBS) is incubated for 5 minutes in a Chrono-log Whole Blood Aggregometer at 25° C. An aggregating agent (collagen, 1 μg/ml; U46619, 100 ng/ml; or ADP, 17 μM) is added and the transmission is recorded.

Sequence of human platelet rich plasma (PRP) (P08514 32-1039): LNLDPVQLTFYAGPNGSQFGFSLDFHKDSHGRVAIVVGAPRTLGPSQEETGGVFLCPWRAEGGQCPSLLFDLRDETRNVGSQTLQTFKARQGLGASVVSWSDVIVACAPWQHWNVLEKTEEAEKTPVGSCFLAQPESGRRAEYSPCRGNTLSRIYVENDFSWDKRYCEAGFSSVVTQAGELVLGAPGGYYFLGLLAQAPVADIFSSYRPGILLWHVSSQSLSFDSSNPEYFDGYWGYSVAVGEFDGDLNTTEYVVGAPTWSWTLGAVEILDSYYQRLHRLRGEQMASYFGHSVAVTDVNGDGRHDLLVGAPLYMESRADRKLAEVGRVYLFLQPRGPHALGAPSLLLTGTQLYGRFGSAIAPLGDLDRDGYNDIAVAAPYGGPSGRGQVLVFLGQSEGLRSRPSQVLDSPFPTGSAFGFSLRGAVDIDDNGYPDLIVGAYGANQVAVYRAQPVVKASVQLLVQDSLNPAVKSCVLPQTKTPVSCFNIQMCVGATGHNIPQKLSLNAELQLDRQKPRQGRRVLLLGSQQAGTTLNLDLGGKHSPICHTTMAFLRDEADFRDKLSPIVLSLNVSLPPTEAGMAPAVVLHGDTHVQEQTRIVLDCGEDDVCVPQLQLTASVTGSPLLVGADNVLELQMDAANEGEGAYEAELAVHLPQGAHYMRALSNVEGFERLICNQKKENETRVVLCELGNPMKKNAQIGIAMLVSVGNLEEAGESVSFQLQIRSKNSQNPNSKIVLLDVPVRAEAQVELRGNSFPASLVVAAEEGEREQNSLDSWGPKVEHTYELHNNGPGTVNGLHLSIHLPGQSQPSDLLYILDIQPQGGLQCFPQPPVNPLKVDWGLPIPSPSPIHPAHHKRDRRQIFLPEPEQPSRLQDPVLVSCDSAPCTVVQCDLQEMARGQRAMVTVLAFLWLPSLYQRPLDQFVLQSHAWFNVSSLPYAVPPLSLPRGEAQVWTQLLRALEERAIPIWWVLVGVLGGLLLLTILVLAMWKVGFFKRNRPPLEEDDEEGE
Sequence of human platelet rich plasma (PRP) (P05106 27-788): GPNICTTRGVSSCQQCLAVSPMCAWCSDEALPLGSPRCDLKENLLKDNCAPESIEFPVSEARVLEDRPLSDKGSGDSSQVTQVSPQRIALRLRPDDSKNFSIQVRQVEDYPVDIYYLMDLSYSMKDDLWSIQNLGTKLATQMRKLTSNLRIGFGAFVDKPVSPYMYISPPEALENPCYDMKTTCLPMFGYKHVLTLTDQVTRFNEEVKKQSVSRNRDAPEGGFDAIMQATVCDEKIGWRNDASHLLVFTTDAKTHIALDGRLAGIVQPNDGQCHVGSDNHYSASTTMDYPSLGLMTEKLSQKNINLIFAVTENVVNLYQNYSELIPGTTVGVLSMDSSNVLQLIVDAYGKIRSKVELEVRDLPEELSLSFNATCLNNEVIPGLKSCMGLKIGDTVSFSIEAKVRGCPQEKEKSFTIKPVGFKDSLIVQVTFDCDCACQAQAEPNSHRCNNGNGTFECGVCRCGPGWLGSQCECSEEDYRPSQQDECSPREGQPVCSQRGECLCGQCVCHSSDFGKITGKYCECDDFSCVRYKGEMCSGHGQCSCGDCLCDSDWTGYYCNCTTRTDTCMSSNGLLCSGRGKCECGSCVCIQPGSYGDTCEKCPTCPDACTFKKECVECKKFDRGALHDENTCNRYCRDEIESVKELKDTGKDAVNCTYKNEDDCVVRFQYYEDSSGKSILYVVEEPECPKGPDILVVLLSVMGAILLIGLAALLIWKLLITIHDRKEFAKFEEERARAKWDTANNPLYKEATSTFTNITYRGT

Row | Molecule | IC50 [nM]
17 | N=C(N)NCCC[C@@H]1NC(=O)[C@@H](Cc2ccc(O)cc2)NC(=O)CSC[C@@H](C(=O)N[C@@H](CCCCN)C(=O)O)NC(=O)[C@H](CC(=O)O)NC(=O)CNC1=O [7/25, cyclo-S-acetyl-dTyr--Arg--Gly--Asp--Cys--Lys--OH] ({CH2CO}-[dY]RGDCK-OH; thioether N-5) | 370
18 | cyclo-S-acetyl-dTyr--Arg--Gly--Asp--Cys--Tyr--Arg--NH2 [7/43] | 350

From patent US5493007A, “Platelet aggregation inhibitors having high specificity for GPIIBIIIA” (Genentech, Inc., priority 1994, dated 1996)
